# Source: patent publication US8541598B2, “Biodegradable solvents for the chemical industry” (Dublin City University, priority 2007, dated 2013)
# “Also recorded” adds a separate entry of the source.
# How the values were obtained:
# microbes = details: literature (Bodor et al.); cited from earlier work
# [1] = tested on: Pseudomonas aeruginosa, Escherichia coli, Klebsiella sp., Salmonella sp., Staphylococcus aureus, Enterococcus sp., Bacillus subtilis; assay: Antimicrobial activity / minimum inhibitory concentrations on seven strains of bacteria; type: cell-based; details: seven strains of bacteria
# Experimental: Seven strains of bacteria were used in the assessment of the antimicrobial activity of the ILs claimed: 4 gram negative and three gram positive as shown below.
# A wide concentration range was tested (0-20000 μg/ml). The concentrations screened for antibacterial activity are generally from 2 μg/ml to 1000 μg/ml (Table 6). […] The concentration range screened for the ILs containing ethers was up to 20000 μg/ml. At these high concentrations a lack of antibacterial activity is a significant result.
# E. coli = assay: Percentage kill of bacteria by KG20; type: cell-based, Escherichia coli
# Text: (§1) A test reference study with 1-methyl-3-decyloxy-carbonyl methylimidazole bromide salt KG20, known to be toxic due to the long alkyl chain, has been completed to provide reference data. This experiment compares, for the same side chain length, the impact of the presence of the oxygen (e.g. KG15) on toxicity.
# P. aeruginosa = assay: Percentage kill of bacteria by KG20; type: cell-based, Pseudomonas aeruginosa
# Text: as §1
# Enterococcus sp. = assay: Percentage kill of bacteria by KG20; type: cell-based
# Text: as §1
# Klebsiella sp. = assay: Percentage kill of bacteria by KG20; type: cell-based
# Text: as §1
# Salmonella sp. = assay: Percentage kill of bacteria by KG20; type: cell-based
# Text: as §1
# S. aureus = assay: Percentage kill of bacteria by KG20; type: cell-based, Staphylococcus aureus
# Text: as §1
# B. subtilis = assay: Percentage kill of bacteria by KG20; type: cell-based, Bacillus subtilis
# Text: as §1
smiles,measurement,setting,value
"CCCCCCCCCCCC(=O)OCn1cc[n+](C)c1.[Cl-] [compound 6, 1-[(n-Dodecanoyloxy)methyl]-3-methylimidazolium Chloride]",antimicrobial activity in words,microbes,effective antimicrobial activity at ppm concentrations; also recorded: potent antibacterials
"CCCCCCCCCCOC(=O)Cn1cc[n+](C)c1.[Br-] [KG20, 3-methyl-1-(decanoxycarbonylmethyl)imidazolium bromide]",toxicity / antibacterial activity in words,[1],toxic to all the different bacteria screened; also recorded: potent antibacterial
same,Percentage kill,E. coli; 3.9 μg/ml,10%
same,Percentage kill,E. coli; 7.8 μg/ml,8.5%
same,Percentage kill,E. coli; 15.62 μg/ml,17%
same,Percentage kill,E. coli; 31.25 μg/ml,28%
same,Percentage kill,E. coli; 62.5 μg/ml,37%
same,Percentage kill,E. coli; 125 μg/ml,92%
same,Percentage kill,E. coli; 250 μg/ml,92%
same,Percentage kill,E. coli; 500 μg/ml,82%
same,Percentage kill,E. coli; 1000 μg/ml,91%
same,Percentage kill,P. aeruginosa; 3.9 μg/ml,0%
same,Percentage kill,P. aeruginosa; 7.8 μg/ml,0%
same,Percentage kill,P. aeruginosa; 15.62 μg/ml,0%
same,Percentage kill,P. aeruginosa; 31.25 μg/ml,6%
same,Percentage kill,P. aeruginosa; 62.5 μg/ml,0%
same,Percentage kill,P. aeruginosa; 125 μg/ml,55.5%
same,Percentage kill,P. aeruginosa; 250 μg/ml,82%
same,Percentage kill,P. aeruginosa; 500 μg/ml,82%
same,Percentage kill,P. aeruginosa; 1000 μg/ml,100%
same,Percentage kill,Enterococcus sp.; 3.9 μg/ml,6.5%
same,Percentage kill,Enterococcus sp.; 7.8 μg/ml,6%
same,Percentage kill,Enterococcus sp.; 15.62 μg/ml,23%
same,Percentage kill,Enterococcus sp.; 31.25 μg/ml,18.7%
same,Percentage kill,Enterococcus sp.; 62.5 μg/ml,48.7%
same,Percentage kill,Enterococcus sp.; 125 μg/ml,49.5%
same,Percentage kill,Enterococcus sp.; 250 μg/ml,83.4%
same,Percentage kill,Enterococcus sp.; 500 μg/ml,84%
same,Percentage kill,Enterococcus sp.; 1000 μg/ml,96.4%
same,Percentage kill,Klebsiella sp.; 3.9 μg/ml,0%
same,Percentage kill,Klebsiella sp.; 7.8 μg/ml,0%
same,Percentage kill,Klebsiella sp.; 15.62 μg/ml,0%
same,Percentage kill,Klebsiella sp.; 31.25 μg/ml,0%
same,Percentage kill,Klebsiella sp.; 62.5 μg/ml,7%
same,Percentage kill,Klebsiella sp.; 125 μg/ml,21%
same,Percentage kill,Klebsiella sp.; 250 μg/ml,64%
same,Percentage kill,Klebsiella sp.; 500 μg/ml,68.2%
same,Percentage kill,Klebsiella sp.; 1000 μg/ml,91.8%
same,Percentage kill,Salmonella sp.; 3.9 μg/ml,0%
same,Percentage kill,Salmonella sp.; 7.8 μg/ml,0%
same,Percentage kill,Salmonella sp.; 15.62 μg/ml,0%
same,Percentage kill,Salmonella sp.; 31.25 μg/ml,0%
same,Percentage kill,Salmonella sp.; 62.5 μg/ml,10%
same,Percentage kill,Salmonella sp.; 125 μg/ml,58%
same,Percentage kill,Salmonella sp.; 250 μg/ml,73.5%
same,Percentage kill,Salmonella sp.; 500 μg/ml,88%
same,Percentage kill,Salmonella sp.; 1000 μg/ml,86%
same,Percentage kill,S. aureus; 3.9 μg/ml,66%
same,Percentage kill,S. aureus; 7.8 μg/ml,90%
same,Percentage kill,S. aureus; 15.62 μg/ml,88.2%
same,Percentage kill,S. aureus; 31.25 μg/ml,86.4%
same,Percentage kill,S. aureus; 62.5 μg/ml,90.3%
same,Percentage kill,S. aureus; 125 μg/ml,80.7%
same,Percentage kill,S. aureus; 250 μg/ml,93.8%
same,Percentage kill,S. aureus; 500 μg/ml,96%
same,Percentage kill,B. subtilis; 3.9 μg/ml,0%
same,Percentage kill,B. subtilis; 7.8 μg/ml,0%
same,Percentage kill,B. subtilis; 15.62 μg/ml,0%
same,Percentage kill,B. subtilis; 31.25 μg/ml,0%
same,Percentage kill,B. subtilis; 62.5 μg/ml,0%
same,Percentage kill,B. subtilis; 125 μg/ml,80.2%
same,Percentage kill,B. subtilis; 250 μg/ml,81.5%
same,Percentage kill,B. subtilis; 500 μg/ml,83.2%
same,Percentage kill,B. subtilis; 1000 μg/ml,100%
